The record followed here is patent publication US20240293358A1, “COMPOSITION COMPRISING PPAR-MODULATOR AND AN UROLITHIN DERIVATIVE AND USES THEREOF” (Universite de Bordeaux, priority 0001, published 2024).

In this experiment the test system is Costello (CS) zebrafish injected with HRASV12 plasmid. The experiment in a line: Phenotype analysis (survival, developmental defects) of Costello zebrafish embryos. It counts as in vivo, Zebrafish (Danio rerio). To be noted: HRASG12V-embryos; for survival rate: single agent 20 μM by bathing 1 dpf to 5 dpf, 4 days of treatment; for number of defective individuals among alive embryo: single agent 20 μM, vehicle (DMSO) 60%.

Where only a bound is given, the exact number is not on record here.

Description: Zebrafish (Danio rerio) embryos were obtained from natural spawnings and raised in embryo medium (E3) (97) at 28.5° C. Embryos were staged as described previously [46]. Starting 5 days post-fertilisation (dpf), embryos were fed daily. […] 1 nl of 12.5 ng/μl of GFP-H-RASV12 plasmid and 12.5 ng/μl of T2 transposase mRNA were co-injected in the first cell of zebrafish eggs. Control embryos were injected with the same volume of PBS. H-RASV12 was expressed in zebrafish embryo under heat shock, 30 mn at 37° C. at 1 day post fertilization (dpf) and embryo expressing GFP at 2 dpf were selected for the study.
The embryo injected with the HRASV12 plasmid were treated daily by bathing from 1 dpf to 5 dpf with respectively 20 μM bezafibrate, 20 μM urolithin A, 20 μM bezafibrate+20 μM urolithin A, 10 μM bezafibrate+5 μM urolithin A, 5 μM bezafibrate+5 μM urolithin A. Control embryos were treated with the same volume of DMSO corresponding to 0.2% of DMSO. The imaging and phenotype analysis of mortality and defects of appearance after plasmid injection were performed on alive embryo anesthetized using ethyl 3-aminobenzoate methanesulfonate, MS-222 (Sigma, Cat. #A-5040) at 200 mg/L at 2 days post fertilization, 3 dpf, 4 dpf and 5 dpf using a ZEISS axiocam stereomicroscope (ZEISS, Germany).
Embryos injected with HRASV12 plasmid were selected at 2 days post fertilization (dpf) following their GFP^+/+ expression. HRASV12 plasmid was activated under a heat shock of embryos at 37° C. for 30 minutes. Embryos were observed daily from 2 dpf to 5 dpf in order to analyze the effect of HRASV12 overexpression on their physiological development (FIG. 1A, 1B).

As for `CC(C)(Oc1ccc(CCNC(=O)c2ccc(Cl)cc2)cc1)C(=O)O` [bezafibrate, 2-(4-{2-[(4-chlorobenzoyl)amino]ethyl}phenoxy)-2-methylpropanoic acid], the survival rate result was “up to 70%” and the “number of defective individuals among alive embryo” value is on record as 45%.

In the case of `O=c1oc2cc(O)ccc2c2ccc(O)cc12` [urolithin A], the survival rate is at most 65% and the “number of defective individuals among alive embryo” value was 43%.
